In patent publication US12240862B2, “Inhibitors of peptidylarginine deiminases” (Gilead Sciences, Inc., priority 2020, dated 2025):
pIC50: −log10 of the molar value.

Target: T1, human PAD4 (Homo sapiens, UniProt Q9UM07)
T1 construct: human PAD4 (NM_012387), A2P663, was PCR amplified; His-SUMO (N, cleaved yes); made in house; host or cells: E. coli BL21(DE3)
Experiment: In vitro PAD4 BAEE biochemical assay
Details: human PAD4, BAEE substrate; 5 nM PAD4, 2 mM calcium chloride, 3 mM BAEE; geometric mean of multiple experiments
How it was run: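 Ammonia release from BAEE deimination monitored by o-phthalaldehyde amine coupling (1 h, 25 °C) after EDTA stop. Final conditions: 5 nM tag-free recombinant human PAD4 (E. coli), 2 mM CaCl2, 3 mM BAEE, pH 7.6 MOPS with DTT; 30 min compound preincubation, then 2 h reaction at 25 °C.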

T1 sequence (Q9UM07 2-663): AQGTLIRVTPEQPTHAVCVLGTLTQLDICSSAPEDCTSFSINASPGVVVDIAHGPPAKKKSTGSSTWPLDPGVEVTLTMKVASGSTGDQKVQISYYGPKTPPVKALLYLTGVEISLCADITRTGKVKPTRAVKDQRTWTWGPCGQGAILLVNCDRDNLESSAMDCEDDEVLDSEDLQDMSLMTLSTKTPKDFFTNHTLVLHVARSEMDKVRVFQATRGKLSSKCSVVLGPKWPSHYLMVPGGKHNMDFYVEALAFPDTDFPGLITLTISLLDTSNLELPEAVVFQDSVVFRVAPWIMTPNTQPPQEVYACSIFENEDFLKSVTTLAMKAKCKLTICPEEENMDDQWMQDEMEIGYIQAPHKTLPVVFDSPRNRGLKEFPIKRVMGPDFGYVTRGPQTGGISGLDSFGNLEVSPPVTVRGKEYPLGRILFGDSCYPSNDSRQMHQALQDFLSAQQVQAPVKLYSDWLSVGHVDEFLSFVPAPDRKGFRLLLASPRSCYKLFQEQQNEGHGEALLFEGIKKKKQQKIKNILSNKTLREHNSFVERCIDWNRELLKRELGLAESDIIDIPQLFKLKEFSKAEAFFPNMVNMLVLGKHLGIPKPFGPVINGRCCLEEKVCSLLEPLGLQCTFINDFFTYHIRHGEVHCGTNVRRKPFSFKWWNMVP

SMILES | pIC50
COc1cc(C(=O)N2[C@H]3CC[C@@H]2[C@H](N)C3)cc2nc(-c3cc4ccc(C5CCCN(C(=O)C(C)(C)C)C5)nc4n3CC3CC3)c(C)n12 (stereo partly drawn) [Example 517, 1-[3-[2-[7-[(1~{R},2~{R}, 4~{S})-2-amino-7-azabicyclo[2.2.1]heptane-7-carbonyl]-5-methoxy-3-methylimidazo[1,2-a]pyridin-2-yl]-1-(cyclopropylmethyl)pyrrolo[2,3-b]pyridin-6-yl]piperidin-1-yl]-2,2-dimethylpropan-1-one] | 6.21
CCc1ccc2cc(-c3nc4cc(C(=O)N5CCC[C@@H](N)C5)cc(OC)n4c3C)n(CC3CC3)c2c1F [Example 586, [(3~{R})-3-aminopiperidin-1-yl]-[2-[1-(cyclopropylmethyl)-6-ethyl-7-fluoroindol-2-yl]-5-methoxy-3-methylimidazo [1,2-a]pyridin-7-yl]methanone] | 5.49
CCc1ccc2cc(-c3nc4cc(C(=O)N5[C@H]6CC[C@@H]5[C@H](N)C6)cc(OC)n4c3C3CC3)n(CC3CC3)c2n1 [Example 578, [(1~{R},2~{R},4~{S})-2-amino-7-azabicyclo [2.2.1]heptan-7-yl]-[3-cyclopropyl-2-[1-(cyclopropylmethyl)-6-ethylpyrrolo[2,3-b]pyridin-2-yl]-5-methoxyimidazo [1,2-a]pyridin-7-yl]methanone] | 6.46
COc1cc(C(=O)N2[C@H]3CC[C@@H]2[C@H](N)C3)cc2nc(-c3cc4ccc(N5[C@H](C)CCCS5(=O)=O)nc4n3CC3CC3)c(C)n12 [Example 463, [(1~{R},2~{R},4~{S})-2-amino-7-azabicyclo [2.2.1]heptan-7-yl]-[2-[1-(cyclopropylmethyl)-6-[(3~{R})-3-methyl-1,1-dioxothiazinan-2-yl]pyrrolo[2,3-b]pyridin-2-yl]-5-methoxy-3-methylimidazo [1,2-a]pyridin-7-yl] methanone] | 6.88
COc1cc(C(=O)N2C[C@@H]3CCN[C@@H]3C2)cc2nc(-c3cc4ccc([C@@H](C)NC(=O)C56CC(F)(C5)C6)nc4n3CC3CC3)c(C)n12 [Example 20, ~{N}-[(1~{R})-1-[2-[7-[(3~{a}~{S}, 6~{a}~{S})-2,3,3~{a}, 4,6,6~{a}-hexahydro-1~{H}-pyrrolo[3,4-b]pyrrole-5-carbonyl]-5-methoxy-3-methylimidazo[1,2-a]pyridin-2-yl]-1-(cyclopropylmethyl)pyrrolo[2,3-b]pyridin-6-yl]ethyl]-3-fluorobicyclo[1.1.1] pentane-1-carboxamide] | 5.41
CCc1cc(C(=O)N2CCC[C@@H](N)C2)cc2nc(-c3cc4ccc(N(C(F)F)S(C)(=O)=O)nc4n3CC3CC3)c(C)n12 [Example 427, ~{N}-[2-[7-[(3~{R})-3-aminopiperidine-1-carbonyl]-5-ethyl-3-methylimidazo [1,2-a]pyridin-2-yl]-1-(cyclopropylmethyl)pyrrolo [2,3-b]pyridin-6-yl]-~{N}-(difluoromethyl) methanesulfonamide] | 7.02
COc1cc(C(=O)N2CCC[C@@H](N)C2)cc2nc(-c3cc4ccc(C(C)C)nc4n3CC3CC3)c(C)n12 [Example 608, [(3~{R})-3-aminopiperidin-1-yl]-[2-[1-(cyclopropylmethyl)-6-propan-2-ylpyrrolo [2,3-b]pyridin-2-yl]-5-methoxy-3-methylimidazo [1,2-a]pyridin-7-yl] methanone] | 6.26
COc1cc(C(=O)N2CCC[C@@H](N)C2)cc2nc(-c3cc4ccc([C@@H](C)NC(=O)OC(C)(C)C)nc4n3CC3CC3)c(C)n12 [Example 257, ~{tert}-butyl~{N}-[(1~{R})-1-[2-[7-[(3~{R})-3-aminopiperidine-1-carbonyl]-5-methoxy-3-methylimidazo[1,2-a]pyridin-2-yl]-1-(cyclopropylmethyl)pyrrolo [2,3-b]pyridin-6-yl]ethyl] carbamate] | 6.68
CCc1ccc2cc(-c3nc4cc(C(=O)N5[C@H]6CC[C@@H]5[C@H](N)C6)cc(OC)n4c3C)[nH]c2n1 [Example 506, [(1~{R},2~{R},4~{S})-2-amino-7-azabicyclo [2.2.1]heptan-7-yl]-[2-(6-ethyl-1~{H}-pyrrolo[2,3-b]pyridin-2-yl)-5-methoxy-3-methylimidazo[1,2-a]pyridin-7-yl]methanone] | 4.37
COc1cc(C(=O)N2[C@H]3CC[C@@H]2[C@H](N)C3)cc2nc(-c3cc4ccc([C@@H](C)Nc5cnn(C(C)(C)C)c5)nc4n3CC3CC3)c(C)n12 [Example 260, [(1~{R},2~{R},4~{S})-2-amino-7-azabicyclo[2.2.1]heptan-7-yl]-[2-[6-[(1~{R})-1-[(1-~{tert}-butylpyrazol-4-yl)amino]ethyl]-1-(cyclopropylmethyl)pyrrolo [2,3-b]pyridin-2-yl]-5-methoxy-3-methylimidazo [1,2-a]pyridin-7-yl] methanone] | 6.91
CCOC(=O)C1CC1c1c(-c2cc3ccc(N(C(F)F)S(C)(=O)=O)nc3n2CC2CC2)nc2cc(C(=O)N3CCC[C@@H](N)C3)ccn12 (stereo partly drawn) [Example 432, ethyl 2-[7-[(3~{R})-3-aminopiperidine-1-carbonyl]-2-[1-(cyclopropylmethyl)-6-[difluoromethyl (methylsulfonyl)amino]pyrrolo[2,3-b]pyridin-2-yl]imidazo[1,2-a]pyridin-3-yl]cyclopropane-1-carboxylate] | 5.60
COc1cc(C(=O)N2CCC[C@@H](N)C2)cc2nc(-c3cc4ccc(-c5cccnc5N5CCOCC5)nc4n3CC3CC3)c(C)n12 [Example 606, [(3~{R})-3-aminopiperidin-1-yl]-[2-[1-(cyclopropylmethyl)-6-(2-morpholin-4-ylpyridin-3-yl)pyrrolo[2,3-b]pyridin-2-yl]-5-methoxy-3-methylimidazo[1,2-a]pyridin-7-yl]methanone] | 6.43
COc1cc(C(=O)N2C[C@H](N)[C@@H]3CC[C@H]2C3)cc2nc(-c3cc4ccc([C@@H](C)NC(=O)C56CC(C#N)(C5)C6)nc4n3CC3CC3)c(C3CC3)n12 [Example 632, N-((R)-1-(2-(7-((1S,4R,5R)-4-amino-2-azabicyclo[3.2.1]octane-2-carbonyl)-3-cyclopropyl-5-methoxyimidazo[1,2-a]pyridin-2-yl)-1-(cyclopropylmethyl)-1H-pyrrolo[2,3-b]pyridin-6-yl)ethyl)-3-cyanobicyclo [1.1.1]pentane-1-carboxamide] | 6.85
CCc1ccc2cc(-c3nc4cc(C(=O)N5CCC[C@@H](N)C5)cc(OC)n4c3C)n(CC3CC3)c2n1 [Example 613, [(3~{R})-3-aminopiperidin-1-yl]-[2-[1-(cyclopropylmethyl)-6-ethylpyrrolo[2,3-b]pyridin-2-yl]-5-methoxy-3-methylimidazo [1,2-a]pyridin-7-yl] methanone] | 6.52
COc1cc(C(=O)N2[C@H]3CC[C@@H]2[C@H](N)C3)cc2nc(-c3cc4ccc(C5CCN(C(=O)C(C)(C)C)CC5)nc4n3CC3CC3)c(C)n12 [Example 526, 1-[4-[2-[7-[(1~{R},2~{R}, 4~{S})-2-amino-7-azabicyclo[2.2.1]heptane-7-carbonyl]-5-methoxy-3-methylimidazo[1,2-a]pyridin-2-yl]-1-(cyclopropylmethyl)pyrrolo [2,3-b]pyridin-6-yl]piperidin-1-yl]-2,2-dimethylpropan-1-one] | 6.34
COc1cc(C(=O)N2CC[C@@H]3CCNC[C@@H]32)cc2nc(-c3cc4ccc(N(C(F)F)S(C)(=O)=O)nc4n3CC3CC3)c(C)n12 (single isomer, unassigned) [Example 417] | 5.14
COc1cc(C(=O)NC[C@H]2CCCCN2)cc2nc(-c3cc4ccc(N(C(F)F)S(C)(=O)=O)nc4n3CC3CC3)c(C)n12 [Example 295, 2-[1-(cyclopropylmethyl)-6-[difluoromethyl (methylsulfonyl)amino]pyrrolo[2,3-b]pyridin-2-yl]-5-methoxy-3-methyl-~{N}-[[(2~{R})-piperidin-2-yl]methyl] imidazo[1,2-a]pyridine-7-carboxamide] | 4.57
COc1cc(C(=O)N2CCC[C@@H](N)C2)cc2nc(-c3cc4ccc([C@@H](C)NC(=O)N(C)C)nc4n3CC3CC3)c(C)n12 [Example 253, 3-[(1~{R})-1-[2-[7-[(3~{R})-3-aminopiperidine-1-carbonyl]-5-methoxy-3-methylimidazo[1,2-a]pyridin-2-yl]-1-(cyclopropylmethyl)pyrrolo [2,3-b]pyridin-6-yl]ethyl]-1,1-dimethylurea] | 6.87
COc1cc(C(=O)N2C[C@H](N)[C@@H]3CC[C@H]2C3)cc2nc(-c3cc4ccc([C@@H](C)NC(=O)C56CC(F)(C5)C6)nc4n3CC3CC3)c(C)n12 [Example 189, N—((R)-1-(2-(7-((1S,4R,5R)-4-amino-2-azabicyclo[3.2.1]octane-2-carbonyl)-5-methoxy-3-methylimidazo[1,2-a]pyridin-2-yl)-1-(cyclopropylmethyl)-1H-pyrrolo[2,3-b]pyridin-6-yl)ethyl)-3-fluorobicyclo[1.1.1]pentane-1-carboxamide] | 7.17
COc1cc(C(=O)N2[C@H]3CC[C@@H]2[C@H](N)C3)cc2nc(-c3cc4ccc(-c5ccccc5C(F)(F)F)nc4n3CC3CC3)c(C)n12 [Example 549, [(1~{R},2~{R},4~{S})-2-amino-7-azabicyclo [2.2.1]heptan-7-yl]-[2-[1-(cyclopropylmethyl)-6-[2-(trifluoromethyl)phenyl]pyrrolo[2,3-b]pyridin-2-yl]-5-methoxy-3-methylimidazo[1,2-a]pyridin-7-yl]methanone] | 5.44
COc1cc(C(=O)N2[C@H]3CC[C@@H]2[C@H](N)C3)cc2nc(-c3cc4ccc([C@@H](C)NC(=O)c5cocn5)nc4n3CC3CC3)c(C)n12 [Example 105, ~{N}-[(1~{R})-1-[2-[7-[(1~{R},2~{R},4~{S})-2-amino-7-azabicyclo[2.2.1]heptane-7-carbonyl]-5-methoxy-3-methylimidazo [1,2-a]pyridin-2-yl]-1-(cyclopropylmethyl)pyrrolo [2,3-b]pyridin-6-yl]ethyl]-1,3-oxazole-4-carboxamide] | 7.25
